# Assay results reported in patent US8067197B2, “Soluble recombinant αvβ3 adhesion receptor” (Merck Patent GmbH, priority 1996, dated 2011).
# Square brackets hold non-standard residues; d marks the D form. βAla = NCCC(=O)O
# Key:
# [1] = target: αVβ3 receptor (placenta, full length recombinant, soluble recombinant); assay: Competition assay: inhibition of biotinylated vitronectin binding to immobilized integrin; design: species or system human; settings: biotinylated vitronectin 1 μg/ml, 3 h, 37° C.
# Description: The truncated and full length recombinant αVβ3 and placenta αVβ3 are immobilized and binding of biotinylated ligands is examined. Three purified RGD-containing ligands—vitronectin, fibrinogen and fibronectin—that are known to bind to αVβ3 are used. […] Biotinylated vitronectin and increasing concentrations of above-specified peptides or non-peptidic analogues are incubated in parallel with immobilized receptor.
# Integrins were immobilized as described above. Serially diluted cyclic peptides were added in parallel with biotinylated vitronectin (1 μg/ml). After 3 h incubation at 37° C., bound ligand was detected as described above. […]
# [2] = tested on: αV and β3 virus infected Sf9 cells; assay: Cell shape change studies of virus-infected Sf9 cells on vitronectin coated plates; assay type: cell-based, insect; settings: result in words
# Description: Integrins determine and modulate the cell shape by acting as structural links between the extracellular matrix and the cytoskeleton (Schwartz et al. 1995, Ann. Rev. Cell Dev. Biol. 11, 549; Montgomery et al. 1994, Proc. Natl. Acad. Sci. USA 91, 8856). In later phases of baculovirus infection, Sf9/High Five cells are usually rounded and loosely attached (FIG. 3A), as were the cells infected with either of the αV or β3 expressing recombinant baculovirus alone or with the null recombinant virus (FIG. 3A). […] No shape change is observed in cells co-infected with αV(FL)+β3(SL) or αV(SL)+β3(SL). […] Correspondingly, cell shape change of αV and β3 virus infected Sf9 cells on vitronectin coated plates are inhibited when challenged with RGD peptides (Table 1).
# Sf9 cells (1×10^6 cells/well) were allowed to adhere to six-well plates either virgin or coated with purified human plasma vitronectin (5 μg/ml in PBS; 2 hours) followed by blocking of non-specific sites (3% BSA (w/v) in PBS), then infected with various virus combinations. The cells were observed 48 hours post-infection for cell shape change.
# [3] = tested on: αVβ3 receptor (placenta, full length recombinant, soluble recombinant); assay: Ligand binding assay: biotinylated ligands on immobilized integrins; design: species or system human; settings: full length and soluble recombinant αVβ3, compared with placental αVβ3; result in words
# Description: The truncated and full length recombinant αVβ3 and placenta αVβ3 are immobilized and binding of biotinylated ligands is examined. Three purified RGD-containing ligands—vitronectin, fibrinogen and fibronectin—that are known to bind to αVβ3 are used. […] Vitronectin is used for testing specific interaction with the recombinant αVβ3. Biotinylated vitronectin and increasing concentrations of above-specified peptides or non-peptidic analogues are incubated in parallel with immobilized receptor.
# Proteins in PBS were diluted with 5-fold concentrated ligation buffer [500 mM NaCl, 500 mM NaHCO3] to 1 mg/ml protein. Freshly prepared N-hydroxysuccinimidobiotin (Sigma) [1 mg/ml in DMSO] was added to 0.1 mg/ml and incubated for 2 h at 20° C. After dialysis [PBS, 0.025% NaN3], protein concentration was determined. The biotinylated proteins were stored at 4° C.
# Ligand Binding assay Integrins were diluted to 1 μg/ml in coating buffer [150 mM NaCl, 1 mM CaCl2, 1 mM MgCl2, 10 μM MnCl2, 20 mM Tris-HCl; pH 7.4) and 100 μl were adsorbed overnight at 4° C. to 96-well microtitre plates. The plates were washed once with binding buffer [0.1% (w/v) BSA in coating buffer] and blocked with blocking buffer (coating buffer containing 3% (w/v) BSA) 2 h at 37° C. After rinsing with binding buffer, serially diluted biotinylated ligands were added. After incubation (3 h, 37° C.), unbound ligand was washed from the plate with binding buffer, and bound biotin was detected by incubation with antibiotin-alkaline-phosphatase conjugated antibody and detection of bound antibody with p-Nitrophenyl-phosphate (BIO-RAD) substrate.
# Target sequence in this assay (P06756 31-987 limits assumed): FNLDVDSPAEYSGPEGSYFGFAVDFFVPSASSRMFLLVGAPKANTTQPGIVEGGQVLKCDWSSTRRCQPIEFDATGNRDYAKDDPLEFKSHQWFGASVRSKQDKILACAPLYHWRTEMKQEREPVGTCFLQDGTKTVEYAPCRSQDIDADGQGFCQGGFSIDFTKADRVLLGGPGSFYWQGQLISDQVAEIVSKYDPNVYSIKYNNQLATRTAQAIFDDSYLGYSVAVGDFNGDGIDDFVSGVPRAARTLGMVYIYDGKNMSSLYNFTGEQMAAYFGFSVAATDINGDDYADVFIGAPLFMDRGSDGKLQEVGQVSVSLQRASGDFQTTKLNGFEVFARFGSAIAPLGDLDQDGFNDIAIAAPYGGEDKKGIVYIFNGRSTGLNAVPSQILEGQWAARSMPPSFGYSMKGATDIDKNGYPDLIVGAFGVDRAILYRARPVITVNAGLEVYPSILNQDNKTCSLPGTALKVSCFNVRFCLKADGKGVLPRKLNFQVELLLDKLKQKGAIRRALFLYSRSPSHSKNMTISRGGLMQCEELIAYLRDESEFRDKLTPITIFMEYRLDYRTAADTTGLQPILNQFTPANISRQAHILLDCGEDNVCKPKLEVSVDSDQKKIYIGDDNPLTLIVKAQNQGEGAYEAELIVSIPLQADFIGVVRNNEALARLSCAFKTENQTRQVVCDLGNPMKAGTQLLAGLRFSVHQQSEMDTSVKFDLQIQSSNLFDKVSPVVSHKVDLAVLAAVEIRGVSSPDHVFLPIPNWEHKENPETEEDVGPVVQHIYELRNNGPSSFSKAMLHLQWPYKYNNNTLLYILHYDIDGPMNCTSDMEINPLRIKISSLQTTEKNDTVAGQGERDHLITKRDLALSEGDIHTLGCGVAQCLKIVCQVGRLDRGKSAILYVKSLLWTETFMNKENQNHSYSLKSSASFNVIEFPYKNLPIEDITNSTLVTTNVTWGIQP
# Target sequence in this assay (P05106 27-718 limits assumed, further chain): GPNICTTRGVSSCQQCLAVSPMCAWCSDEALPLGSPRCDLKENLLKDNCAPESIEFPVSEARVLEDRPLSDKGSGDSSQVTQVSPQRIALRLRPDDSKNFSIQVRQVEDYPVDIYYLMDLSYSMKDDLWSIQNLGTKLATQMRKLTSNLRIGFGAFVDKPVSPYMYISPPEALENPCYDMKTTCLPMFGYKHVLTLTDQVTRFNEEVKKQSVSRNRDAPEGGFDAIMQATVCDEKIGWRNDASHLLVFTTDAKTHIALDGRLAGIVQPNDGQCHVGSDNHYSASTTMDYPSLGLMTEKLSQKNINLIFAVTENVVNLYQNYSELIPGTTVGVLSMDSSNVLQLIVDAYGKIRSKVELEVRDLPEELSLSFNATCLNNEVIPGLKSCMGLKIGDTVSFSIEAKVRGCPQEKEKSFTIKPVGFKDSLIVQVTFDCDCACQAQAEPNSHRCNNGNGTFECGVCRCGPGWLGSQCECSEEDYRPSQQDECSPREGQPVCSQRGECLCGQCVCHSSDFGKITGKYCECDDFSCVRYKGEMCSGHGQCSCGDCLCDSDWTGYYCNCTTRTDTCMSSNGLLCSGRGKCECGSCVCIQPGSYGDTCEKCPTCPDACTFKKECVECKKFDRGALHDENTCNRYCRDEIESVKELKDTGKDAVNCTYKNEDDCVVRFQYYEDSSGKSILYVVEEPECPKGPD
# [4] = tested on: Sf9 cells expressing full length or truncated αV or β3; assay: Metabolic pulse labelling of proteins expressed in Sf9 cells; assay type: cell-based, insect; settings: tunicamycin 10 μM or 10 μg/ml for 16 hours before and during pulse labelling; SDS-PAGE
# Description: The cell extracts were resolved by SDS-PAGE under reducing conditions. The molecular mass in kDa of standard protein markers are indicated on the right. • (B) Sf9 cells infected with αV (FL) (lanes 1 and 2), αV(SL) (lane 3 and 4), β3 (FL) (lane 5 and 6) and β3(SL) (lane 7 and 8) were either treated with 10 μM Tunicamycin in DMSO (lanes 1, 3, 5 and 7) or with DMSO alone (lanes 2, 4, 6 and 8). The infected cells were metabolically pulse labelled as above. Standard protein markers are indicated on the right.
# Similarly, Sf9 cells expressing full length β3 how two bands of approximately 90 kDa and 125 kDa (FIG. 2A, lane 4).
# Metabolic labelling of Sf9 cells was performed as described (Summer and Smith 1987: A manual of methods for baculovirus vectors and insect cell procedures. Texas Agricultural Experiment Station Bulletin B-1555). Where indicated, tunicamycin (Sigma) was present at 10 μg/ml for 16 hours before and during pulse labelling. Cells were lysed with 100 μl of buffer [1% Nonidet® P-40, 1 mM CaCl2, 150 mM NaCl, 0.4 mM Pefabloc® (Boehringer Mann-heim), 10 μg/ml Leupeptin and E64 (Sigma), 10 mM Tris/HCl; pH 7.4; Nonidet P-40 is a detergent and Pefabloc is a protease inhibitor]. […]
compound,measurement,setting,value
CC(C)[C@@H]1NC(=O)[C@@H](Cc2ccccc2)NC(=O)[C@H](CC(=O)O)NC(=O)CNC(=O)[C@H](CCCNC(=N)N)NC1=O [cyc(RGDfV)],IC50,[1],1 to 5 nM
cyc(RGEfV) (cyclo(RGE[dF]V); SMILES CC(C)[C@@H]1NC(=O)[C@@H](Cc2ccccc2)NC(=O)[C@H](CCC(=O)O)NC(=O)CNC(=O)[C@H](CCCNC(=N)N)NC1=O) [control peptide where glutamate was substituted for aspartate],effect on cell shape change of αV and β3 virus infected Sf9 cells,[2],no effect
cyc(RβADfV) (cyclo(R[βAla]D[dF]V); SMILES CC(C)[C@@H]1NC(=O)[C@@H](Cc2ccccc2)NC(=O)[C@H](CC(=O)O)NC(=O)CCNC(=O)[C@H](CCCNC(=N)N)NC1=O) [control peptide where β-alanine was substituted for glycine],effect on cell shape change of αV and β3 virus infected Sf9 cells,[2],no effect
fibrinogen,binding of biotinylated ligand to immobilized receptor,[3],bind both to the full length and soluble receptor preparations in a concentration dependent manner
fibronectin,binding of biotinylated ligand to immobilized receptor,[3],bind both to the full length and soluble receptor preparations in a concentration dependent manner
tunicamycin,production of the slower migrating (glycosylated) band,[4],inhibits the production of the slower migrating band
"vitronectin: purified RGD-containing ligand from human plasma, biotinylated",binding of biotinylated ligand to immobilized receptor,[3],bind both to the full length and soluble receptor preparations in a concentration dependent manner
